Reference: patent publication US20150011394A1 (priority 2012, published 2015)
Read-outs that look alike come from different tables or passages of the source.

Key:
Burkholderia glumae [1] = details: rice, 150 g ai/ha, 1 spray, 29 days after the 1st spray
Burkholderia glumae [2] = format: in vivo
[3] = rice at harvest, 150 g ai/ha, 2 sprays

SMILES	% efficacy (Abbott), Burkholderia glumae incidence on panicles (Burkholderia glumae [1]) [%]	Yield (% of untreated) (Burkholderia glumae [2]; [3]) [%]	Yield T/ha (Burkholderia glumae [2]; [3]) [T/ha]	% efficacy (Abbott), Burkholderia glumae incidence on panicles (Burkholderia glumae [2]; rice, 150 g ai/ha, 2 sprays, 44 days after the 2nd spray) [%]	final yield increase (Burkholderia glumae [2]; rice, harvest trial, Isotianil treated plots)
CCC1(C(=O)N[C@H](C)c2ccc(Cl)cc2)C(C)C1(Cl)Cl (some centres unmarked) [CARPROPAMID]	36	108	9.06	43	
N#Cc1ccccc1NC(=O)c1snc(Cl)c1Cl [Isotianil, isotianil]					about 20%
